ChEMBL document CHEMBL1201861, “Genomics of Drug Sensitity in Cancer screening data, Wellcome Trust Sanger Institute”
Values belong to the molecule of their own block, whether it stands above or below them.

What was measured:
Test in all cases: cells
Assay type in all cases: functional, cell-based, Homo sapiens
NCI-H1648 = details: Homo sapiens, NCI-H1648;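 also: cell viability assay measuring inhibition of NCI-H1648 cell growth, from the Sanger screening data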
Description: SANGER: Inhibition of human NCI-H1648 cell growth in a cell viability assay.

NB69 = details: Homo sapiens, NB69;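 also: growth inhibition of NB69 cells, determined by a cell viability assay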
Description: SANGER: Inhibition of human NB69 cell growth in a cell viability assay.

SNB-75 = details: Homo sapiens, SNB-75;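 also: cell viability assay measuring growth inhibition of human SNB-75 cells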
Description: SANGER: Inhibition of human SNB75 cell growth in a cell viability assay.

VA-ES-BJ = details: Homo sapiens, VA-ES-BJ;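 also: growth inhibition of the VA-ES-BJ cell line, read out by a cell viability assay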
Description: SANGER: Inhibition of human VA-ES-BJ cell growth in a cell viability assay.

NKM-1 = details: Homo sapiens, NKM-1;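 also: growth inhibition of NKM-1 cells, read out with a cell viability assay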
Description: SANGER: Inhibition of human NKM-1 cell growth in a cell viability assay.

ES7 = details: Homo sapiens, ES7;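 also: growth inhibition of cultured human ES7 cells, read out as cell viability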
Description: SANGER: Inhibition of human ES7 cell growth in a cell viability assay.

TE-8 = details: Homo sapiens, TE-8;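 also: growth inhibition of TE-8 cells, measured with a cell viability readout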
Description: SANGER: Inhibition of human TE-8 cell growth in a cell viability assay.

MHH-NB-11 = details: Homo sapiens, MHH-NB-11;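 also: growth inhibition of human MHH-NB-11 cells, read out by a cell viability assay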
Description: SANGER: Inhibition of human MHH-NB-11 cell growth in a cell viability assay.

ES1 = details: Homo sapiens, ES1;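 also: growth inhibition of ES1 cells, read out with a cell viability assay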
Description: SANGER: Inhibition of human ES1 cell growth in a cell viability assay.

U-266 = details: Homo sapiens, U-266
Description: SANGER: Inhibition of human U-266 cell growth in a cell viability assay.

SW982 = details: Homo sapiens, SW982;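 also: growth inhibition of SW982 cells, read out with a cell viability assay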
Description: SANGER: Inhibition of human SW982 cell growth in a cell viability assay.

TGBC1TKB = details: Homo sapiens, TGBC1TKB;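 also: growth inhibition of TGBC1TKB cells, read out by a cell viability assay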
Description: SANGER: Inhibition of human TGBC1TKB cell growth in a cell viability assay.

LXF-289 cell line = details: Homo sapiens, LXF-289
Description: SANGER: Inhibition of human LXF-289 cell growth in a cell viability assay.

no-11 = details: Homo sapiens;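 also: growth inhibition of human NO-11 cells, read out with a cell viability assay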
Description: SANGER: Inhibition of human no-11 cell growth in a cell viability assay.

COLO-829 = details: Homo sapiens, COLO-829
Description: SANGER: Inhibition of human COLO-829 cell growth in a cell viability assay.

SCC-15 = details: Homo sapiens, SCC-15;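 also: growth inhibition of SCC-15 cells, read out with a cell viability assay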
Description: SANGER: Inhibition of human SCC-15 cell growth in a cell viability assay.

GT3TKB = details: Homo sapiens, GT3TKB;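 also: growth inhibition of the cell line, read out with a cell viability assay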
Description: SANGER: Inhibition of human GT3TKB cell growth in a cell viability assay.

SNU1 = details: Homo sapiens, SNU1;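 also: growth inhibition of human NCI-SNU-1 cells, measured with a cell viability assay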
Description: SANGER: Inhibition of human NCI-SNU-1 cell growth in a cell viability assay.

EW-18 = details: Homo sapiens, EW-18;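 also: growth inhibition of EW-18 cells, read out by a cell viability assay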
Description: SANGER: Inhibition of human EW-18 cell growth in a cell viability assay.

NCI-H510A = details: Homo sapiens, NCI-H510A;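 also: growth inhibition of NCI-H510A cells, read out with a cell viability assay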
Description: SANGER: Inhibition of human NCI-H510A cell growth in a cell viability assay.

LAN-6 = details: Homo sapiens, LAN-6;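 also: growth inhibition of LAN-6 cells, determined with a cell viability assay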
Description: SANGER: Inhibition of human LAN-6 cell growth in a cell viability assay.

TE-12 = details: Homo sapiens, TE-12;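 also: growth inhibition of TE-12 cells, read out by a cell viability assay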
Description: SANGER: Inhibition of human TE-12 cell growth in a cell viability assay.

697 = details: Homo sapiens
Description: SANGER: Inhibition of human 697 cell growth in a cell viability assay.

CP66-MEL = details: Homo sapiens, CP66-MEL;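 also: growth inhibition of CP66-MEL cells determined in a cell viability assay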
Description: SANGER: Inhibition of human CP66-MEL cell growth in a cell viability assay.

LB1047-RCC = details: Homo sapiens, LB1047-RCC;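 also: inhibition of cell growth, determined with a cell viability assay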
Description: SANGER: Inhibition of human LB1047-RCC cell growth in a cell viability assay.

MHH-PREB-1 = details: Homo sapiens, MHH-PREB-1;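 also: cell viability assay measuring inhibition of proliferation of human MHH-PREB-1 cells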
Description: SANGER: Inhibition of human MHH-PREB-1 cell growth in a cell viability assay.

DSH1 = details: Homo sapiens, DSH1;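 also: growth inhibition of human DSH1 cells, measured with a cell viability readout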
Description: SANGER: Inhibition of human DSH1 cell growth in a cell viability assay.

COLO-800 = details: Homo sapiens, COLO-800;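 also: growth inhibition of COLO-800 cells, read out with a cell viability assay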
Description: SANGER: Inhibition of human COLO-800 cell growth in a cell viability assay.

COLO-668 = details: Homo sapiens, COLO-668
Description: SANGER: Inhibition of human COLO-668 cell growth in a cell viability assay.

COLO-684 = details: Homo sapiens, COLO-684
Description: SANGER: Inhibition of human COLO-684 cell growth in a cell viability assay.

HDLM-2 = details: Homo sapiens, HDLM-2;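 also: cell viability assay measuring suppression of HDLM-2 proliferation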
Description: SANGER: Inhibition of human HDLM-2 cell growth in a cell viability assay.

TGBC24TKB = details: Homo sapiens, TGBC24TKB;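 also: growth inhibition of human TGBC24TKB cells, read out with a cell viability assay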
Description: SANGER: Inhibition of human TGBC24TKB cell growth in a cell viability assay.

CTV-1 = details: Homo sapiens, CTV-1;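 also: growth inhibition of the cell line, read out with a cell viability assay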
Description: SANGER: Inhibition of human CTV-1 cell growth in a cell viability assay.

ONS-76 = details: Homo sapiens, ONS-76;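 also: growth inhibition of human ONS-76 cells, read out with a cell viability assay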
Description: SANGER: Inhibition of human ONS-76 cell growth in a cell viability assay.

KLE = details: Homo sapiens, KLE;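 also: growth inhibition of human KLE cells, read out with a cell viability assay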
Description: SANGER: Inhibition of human KLE cell growth in a cell viability assay.

KMOE-2 = details: Homo sapiens, KMOE-2;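 also: growth inhibition of human KMOE-2 cells, read out with a cell viability assay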
Description: SANGER: Inhibition of human KMOE-2 cell growth in a cell viability assay.

SK-UT-1 = details: Homo sapiens, SK-UT-1;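 also: growth inhibition of SK-UT-1 cells, measured by a cell viability assay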
Description: SANGER: Inhibition of human SK-UT-1 cell growth in a cell viability assay.

EOL1 = details: Homo sapiens, EOL1;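 also: growth inhibition of EoL-1 cells, read out by a cell viability assay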
Description: SANGER: Inhibition of human EoL-1-cell cell growth in a cell viability assay.

SW872 = details: Homo sapiens, SW872;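 also: growth inhibition of SW872 cells, read out by a viability assay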
Description: SANGER: Inhibition of human SW872 cell growth in a cell viability assay.

ML-2 = details: Homo sapiens, ML-2;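 also: growth inhibition of ML-2 cells, measured with a cell viability readout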
Description: SANGER: Inhibition of human ML-2 cell growth in a cell viability assay.

KNS-81-FD = details: Homo sapiens, KNS-81-FD;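 also: growth inhibition of KNS-81-FD cells, read out with a cell viability assay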
Description: SANGER: Inhibition of human KNS-81-FD cell growth in a cell viability assay.

GB-1 = details: Homo sapiens, GB-1;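 also: growth of GB-1 cells judged by a viability assay, IC50 marks the concentration inhibiting growth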
Description: SANGER: Inhibition of human GB-1 cell growth in a cell viability assay.

RPMI-8866 = details: Homo sapiens, RPMI-8866
Description: SANGER: Inhibition of human RPMI-8866 cell growth in a cell viability assay.

BB49-HNC = details: Homo sapiens, BB49-HNC;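 also: cell viability assay read-out, reported as inhibition of BB49-HNC cell growth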
Description: SANGER: Inhibition of human BB49-HNC cell growth in a cell viability assay.

CCRF-CEM = details: Homo sapiens, CCRF-CEM;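 also: inhibition of CCRF-CEM cell growth, measured by a cell viability assay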
Description: SANGER: Inhibition of human CCRF-CEM cell growth in a cell viability assay.

SF-126 = details: Homo sapiens, SF-126;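 also: growth inhibition of human SF126 cells, read out with a cell viability assay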
Description: SANGER: Inhibition of human SF126 cell growth in a cell viability assay.

LS-123 = details: Homo sapiens, LS-123
Description: SANGER: Inhibition of human LS-123 cell growth in a cell viability assay.

EC-GI-10 = details: Homo sapiens, EC-GI-10
Description: SANGER: Inhibition of human EC-GI-10 cell growth in a cell viability assay.

A253 cell line = details: Homo sapiens, A253;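 also: growth inhibition of A253 cells, read out with a cell viability assay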
Description: SANGER: Inhibition of human A253 cell growth in a cell viability assay.

Compound: CO[C@H]1C[C@@H]2CC[C@@H](C)[C@@](O)(O2)C(=O)C(=O)N2CCCC[C@H]2C(=O)O[C@H]([C@H](C)C[C@@H]2CC[C@@H](OC(=O)C(C)(CO)CO)[C@H](OC)C2)CC(=O)[C@H](C)/C=C(\C)[C@@H](O)[C@@H](OC)C(=O)[C@H](C)C[C@H](C)/C=C/C=C/C=C/1C [TEMSIROLIMUS]
IC50 (NCI-H1648): 0.182 µM
IC50 (NB69): 0.00946 µM
IC50 (SNB-75): > 0.2 µM
IC50 (VA-ES-BJ): 0.0059 µM
IC50 (NKM-1): 0.198 µM
IC50 (ES7): 0.0859 µM
IC50 (TE-8): > 0.2 µM
IC50 (MHH-NB-11): > 0.2 µM
IC50 (ES1): 0.0245 µM
IC50 (U-266): 0.151 µM
IC50 (SW982): > 0.2 µM
IC50 (TGBC1TKB): 0.137 µM
IC50 (LXF-289 cell line): 0.148 µM
IC50 (no-11): > 0.2 µM
IC50 (COLO-829): > 0.2 µM
IC50 (SCC-15): 0.128 µM
IC50 (GT3TKB): 0.0906 µM
IC50 (SNU1): 0.00481 µM
IC50 (EW-18): > 0.2 µM
IC50 (NCI-H510A): > 0.2 µM
IC50 (LAN-6): > 0.2 µM
IC50 (TE-12): > 0.2 µM
IC50 697: 0.0017 µM
IC50 (CP66-MEL): > 0.2 µM
IC50 (LB1047-RCC): 0.0631 µM
IC50 (MHH-PREB-1): 0.000495 µM
IC50 (DSH1): > 0.2 µM
IC50 (COLO-800): 0.129 µM
IC50 (COLO-668): > 0.2 µM
IC50 (COLO-684): 0.0133 µM
IC50 (HDLM-2): > 0.2 µM
IC50 (TGBC24TKB): 0.141 µM
IC50 (CTV-1): > 0.2 µM
IC50 (ONS-76): 0.033 µM
IC50 (KLE): > 0.2 µM
IC50 (KMOE-2): > 0.2 µM
IC50 (SK-UT-1): 0.0641 µM
IC50 (EOL1): 0.0161 µM
IC50 (SW872): > 0.2 µM
IC50 (ML-2): > 0.2 µM
IC50 (KNS-81-FD): 0.138 µM
IC50 (GB-1): > 0.2 µM
IC50 (RPMI-8866): 0.0314 µM
IC50 (BB49-HNC): > 0.2 µM
IC50 (CCRF-CEM): > 0.2 µM
IC50 (SF-126): 0.0229 µM
IC50 (LS-123): > 0.2 µM
IC50 (EC-GI-10): > 0.2 µM

IC50 (NCI-H1648): 1.12 µM
IC50 (NB69): 0.877 µM
IC50 (ES7): 0.27 µM
IC50 (TE-8): 0.129 µM
IC50 (ES1): 0.13 µM
IC50 (SW982): 0.111 µM
IC50 (TGBC1TKB): 1.13 µM
IC50 (LXF-289 cell line): 0.0728 µM
IC50 (no-11): 2.84 µM
IC50 (COLO-829): 0.701 µM
IC50 (SCC-15): 0.223 µM
IC50 (GT3TKB): 0.301 µM
IC50 (LAN-6): 0.16 µM
IC50 (CP66-MEL): 1.2 µM
IC50 (LB1047-RCC): 0.319 µM
IC50 (DSH1): 0.517 µM
IC50 (COLO-800): 0.183 µM
IC50 (COLO-668): 5.1 µM
IC50 (TGBC24TKB): 0.227 µM
IC50 (ONS-76): 0.325 µM
IC50 (KLE): 1.94 µM
IC50 (A253 cell line): 0.57 µM
IC50 (SK-UT-1): 0.0287 µM
IC50 (SW872): 0.0589 µM
IC50 (KNS-81-FD): 0.248 µM
IC50 (GB-1): 0.0987 µM
IC50 (BB49-HNC): 2.01 µM
IC50 (SF-126): 0.0571 µM
IC50 (LS-123): 2.2 µM
IC50 (EC-GI-10): 0.47 µM
Compound: CC(C)c1ccccc1Cc1cc(C(=O)Nc2ccc(S(=O)(=O)c3ccccc3C(C)(C)C)cc2)c(O)c(O)c1O
IC50 (VA-ES-BJ): 0.0396 µM

Compound: CN(C)C(=N)NC(=N)N [METFORMIN]
IC50 (NCI-H1648): > 20000 µM
IC50 (NB69): > 20000 µM
IC50 (SNB-75): > 20000 µM
IC50 (VA-ES-BJ): 13300 µM
IC50 (NKM-1): 9110 µM
IC50 (ES7): > 20000 µM
IC50 (TE-8): > 20000 µM
IC50 (ES1): > 20000 µM
IC50 (U-266): > 20000 µM
IC50 (SW982): > 20000 µM
IC50 (TGBC1TKB): > 20000 µM
IC50 (LXF-289 cell line): 12000 µM
IC50 (no-11): > 20000 µM
IC50 (COLO-829): > 20000 µM
IC50 (SCC-15): > 20000 µM
IC50 (GT3TKB): > 20000 µM
IC50 (SNU1): 8470 µM
IC50 (EW-18): 5850 µM
IC50 (NCI-H510A): 1310 µM
IC50 (TE-12): > 20000 µM
IC50 697: 6500 µM
IC50 (LB1047-RCC): 16400 µM
IC50 (MHH-PREB-1): 11600 µM
IC50 (DSH1): > 20000 µM
IC50 (COLO-668): > 20000 µM
IC50 (COLO-684): > 20000 µM
IC50 (HDLM-2): 18400 µM
IC50 (CTV-1): 1970 µM
IC50 (ONS-76): > 20000 µM
IC50 (KLE): > 20000 µM
IC50 (KMOE-2): > 20000 µM
IC50 (SK-UT-1): > 20000 µM
IC50 (EOL1): 1820 µM
IC50 (ML-2): 1490 µM
IC50 (KNS-81-FD): 8880 µM
IC50 (GB-1): > 20000 µM
IC50 (RPMI-8866): 9030 µM
IC50 (BB49-HNC): > 20000 µM
IC50 (CCRF-CEM): 2720 µM
IC50 (SF-126): > 20000 µM
IC50 (LS-123): 17300 µM
IC50 (EC-GI-10): > 20000 µM
